Experimental findings from ChEMBL document CHEMBL5212743, “Selectivity Literature for EUbOPEN Chemogenomics Library wave 3” (2023) are described below.

Each structure is given as a SMILES string.

Experiment [1] has as its target 5-hydroxytryptamine receptor 2A (Homo sapiens, UniProt P28223). In words: Selectivity interaction (GPCR panel (PDSP screen)) EUB0000540a HTR2A.
In experiment [2] the target is T1, Mitogen-activated protein kinase kinase kinase 13 (Homo sapiens) (UniProt O43283).
T1 sequence (whole entry): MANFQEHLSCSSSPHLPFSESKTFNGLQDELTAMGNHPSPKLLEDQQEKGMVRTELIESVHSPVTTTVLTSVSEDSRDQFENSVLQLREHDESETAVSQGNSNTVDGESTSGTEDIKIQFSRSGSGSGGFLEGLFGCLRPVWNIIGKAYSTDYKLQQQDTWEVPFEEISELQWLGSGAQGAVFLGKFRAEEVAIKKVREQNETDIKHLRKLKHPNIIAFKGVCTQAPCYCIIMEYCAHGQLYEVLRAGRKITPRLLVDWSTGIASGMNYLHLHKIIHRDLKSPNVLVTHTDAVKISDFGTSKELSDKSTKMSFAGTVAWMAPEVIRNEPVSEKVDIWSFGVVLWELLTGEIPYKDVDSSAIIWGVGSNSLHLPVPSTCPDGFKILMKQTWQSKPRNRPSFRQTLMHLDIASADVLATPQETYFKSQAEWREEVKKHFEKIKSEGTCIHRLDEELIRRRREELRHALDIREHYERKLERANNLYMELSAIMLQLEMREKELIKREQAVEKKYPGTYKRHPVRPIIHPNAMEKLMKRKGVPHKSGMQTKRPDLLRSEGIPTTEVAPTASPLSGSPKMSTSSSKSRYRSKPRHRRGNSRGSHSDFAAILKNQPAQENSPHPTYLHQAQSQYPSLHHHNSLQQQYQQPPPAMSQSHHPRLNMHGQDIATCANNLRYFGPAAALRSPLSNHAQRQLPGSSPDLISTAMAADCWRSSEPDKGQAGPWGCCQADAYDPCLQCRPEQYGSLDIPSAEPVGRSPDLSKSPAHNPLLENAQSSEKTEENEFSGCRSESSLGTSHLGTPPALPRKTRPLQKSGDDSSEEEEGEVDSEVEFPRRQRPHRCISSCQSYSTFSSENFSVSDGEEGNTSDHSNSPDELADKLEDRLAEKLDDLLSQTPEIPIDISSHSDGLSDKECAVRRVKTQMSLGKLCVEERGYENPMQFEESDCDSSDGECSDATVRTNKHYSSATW
As to the kind of experiment: Selectivity interaction (KinomeScan (DiscoverX)) EUB0000540a MAP3K13. Particulars: at 1 µM.

Experiment [3] has as its target T2, Alpha-2C adrenergic receptor (Homo sapiens, UniProt P18825).
T2 sequence (P18825 whole entry): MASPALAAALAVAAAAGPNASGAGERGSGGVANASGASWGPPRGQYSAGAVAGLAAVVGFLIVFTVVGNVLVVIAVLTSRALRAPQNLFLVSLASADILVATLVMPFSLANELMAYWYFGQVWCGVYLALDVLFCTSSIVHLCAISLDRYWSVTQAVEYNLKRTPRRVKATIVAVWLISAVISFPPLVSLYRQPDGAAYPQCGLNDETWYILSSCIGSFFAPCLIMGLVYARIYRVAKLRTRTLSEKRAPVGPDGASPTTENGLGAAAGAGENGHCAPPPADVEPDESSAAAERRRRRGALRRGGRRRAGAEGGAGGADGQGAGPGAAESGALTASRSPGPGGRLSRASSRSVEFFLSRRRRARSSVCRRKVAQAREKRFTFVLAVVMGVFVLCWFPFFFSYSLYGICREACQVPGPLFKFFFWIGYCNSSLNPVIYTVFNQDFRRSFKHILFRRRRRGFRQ
As to the kind of experiment: Selectivity interaction (GPCR panel (PDSP screen)) EUB0000540a ADRA2C.

Experiment [4] addresses T3, Gamma-aminobutyric acid receptor subunit alpha-1 (Homo sapiens, UniProt P14867).
T3 sequence (P14867 whole entry): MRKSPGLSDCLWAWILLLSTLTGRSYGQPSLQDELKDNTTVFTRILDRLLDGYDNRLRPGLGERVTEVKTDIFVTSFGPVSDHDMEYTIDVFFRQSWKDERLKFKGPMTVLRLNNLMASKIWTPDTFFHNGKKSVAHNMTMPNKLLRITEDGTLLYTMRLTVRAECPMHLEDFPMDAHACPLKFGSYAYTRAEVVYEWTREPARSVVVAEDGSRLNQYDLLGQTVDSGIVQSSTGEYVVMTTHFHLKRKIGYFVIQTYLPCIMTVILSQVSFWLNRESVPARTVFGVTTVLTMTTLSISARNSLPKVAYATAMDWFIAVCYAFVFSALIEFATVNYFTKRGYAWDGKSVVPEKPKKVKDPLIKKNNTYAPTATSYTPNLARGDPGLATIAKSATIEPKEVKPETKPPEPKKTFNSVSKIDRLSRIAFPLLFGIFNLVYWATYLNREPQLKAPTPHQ
In words: Selectivity interaction (GPCR panel (PDSP screen)) EUB0000540a GABRA1.

Experiment [5] concerns the target 5-hydroxytryptamine receptor 2B (Homo sapiens, UniProt P41595). As to the kind of experiment: Selectivity interaction (GPCR panel (PDSP screen)) EUB0000540a HTR2B.
The target in experiment [6] is 5-hydroxytryptamine receptor 2C (Homo sapiens, UniProt P28335). In words: Selectivity interaction (GPCR panel (PDSP screen)) EUB0000540a HTR2C.
The target of experiment [7] is Serine/threonine-protein kinase WNK2 (Homo sapiens) (UniProt Q9Y3S1). As to the kind of experiment: Selectivity interaction (GPCR panel (PDSP screen)) EUB0000540a WNK2. Particulars: at 1 µM.
Experiment [8] concerns the target Sigma non-opioid intracellular receptor 1 (Homo sapiens, UniProt Q99720). In words: Selectivity interaction (GPCR panel (PDSP screen)) EUB0000540a SIGMAR1.
In experiment [9] the target is Mitotic checkpoint serine/threonine-protein kinase BUB1 (Homo sapiens) (UniProt O43683). As to the kind of experiment: Selectivity interaction (GPCR panel (PDSP screen)) EUB0000540a BUB1. Particulars: at 1 µM.
In experiment [10] the target is Sigma intracellular receptor 2 (Homo sapiens, UniProt Q5BJF2). As to the kind of experiment: Selectivity interaction (GPCR panel (PDSP screen)) EUB0000540a TMEM97.
Experiment [11] concerns the target Ephrin type-B receptor 2 (Homo sapiens, UniProt P29323).
In experiment [12] the target is T4, Serine/threonine-protein kinase Sgk1 (Homo sapiens) (UniProt O00141).
T4 sequence (whole entry): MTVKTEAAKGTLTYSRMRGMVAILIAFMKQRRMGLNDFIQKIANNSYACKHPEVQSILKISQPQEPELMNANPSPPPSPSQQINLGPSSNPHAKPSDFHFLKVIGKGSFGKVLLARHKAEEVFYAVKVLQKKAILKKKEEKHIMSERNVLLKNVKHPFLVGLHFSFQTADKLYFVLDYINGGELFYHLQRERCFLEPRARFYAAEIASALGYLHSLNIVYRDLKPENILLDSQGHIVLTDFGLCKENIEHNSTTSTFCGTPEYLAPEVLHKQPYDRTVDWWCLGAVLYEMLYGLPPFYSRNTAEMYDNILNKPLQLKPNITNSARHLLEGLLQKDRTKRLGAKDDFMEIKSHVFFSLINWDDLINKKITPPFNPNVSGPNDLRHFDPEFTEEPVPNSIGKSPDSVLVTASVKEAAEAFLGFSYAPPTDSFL
Particulars: at 1 µM.

Experiment [13] deals with T5, Mitogen-activated protein kinase 15 (Homo sapiens) (UniProt Q8TD08).
T5 sequence (whole entry): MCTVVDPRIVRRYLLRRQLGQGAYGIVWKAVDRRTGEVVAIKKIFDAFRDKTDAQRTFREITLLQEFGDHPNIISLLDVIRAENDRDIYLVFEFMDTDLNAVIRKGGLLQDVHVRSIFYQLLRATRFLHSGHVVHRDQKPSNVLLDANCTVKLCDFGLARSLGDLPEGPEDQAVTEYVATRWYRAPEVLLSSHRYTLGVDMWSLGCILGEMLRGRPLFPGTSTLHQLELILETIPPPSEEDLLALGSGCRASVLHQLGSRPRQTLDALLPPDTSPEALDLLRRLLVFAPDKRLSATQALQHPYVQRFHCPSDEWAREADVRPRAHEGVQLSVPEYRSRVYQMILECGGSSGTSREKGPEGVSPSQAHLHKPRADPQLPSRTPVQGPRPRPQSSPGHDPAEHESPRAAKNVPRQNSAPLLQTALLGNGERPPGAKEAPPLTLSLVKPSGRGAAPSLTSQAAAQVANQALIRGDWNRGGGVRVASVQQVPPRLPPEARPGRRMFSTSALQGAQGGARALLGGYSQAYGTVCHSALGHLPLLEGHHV
To be noted: at 10 µM.

Experiment [14] deals with Calcium/calmodulin-dependent protein kinase type IV (Homo sapiens) (UniProt Q16566). To be noted: at 1 µM.
In experiment [15] the target is Insulin receptor (Homo sapiens, UniProt P06213).
The target of experiment [16] is T6, Phosphatidylinositol 4,5-bisphosphate 3-kinase catalytic subunit alpha isoform (Homo sapiens, UniProt P42336). In words: Selectivity interaction (KinomeScan (DiscoverX)) EUB0000306b PIK3CA. To be noted: at 1 µM.
Experiment [17] addresses T7, Serine/threonine-protein kinase TAO3 (Homo sapiens) (UniProt Q9H2K8).
T7 sequence (whole entry): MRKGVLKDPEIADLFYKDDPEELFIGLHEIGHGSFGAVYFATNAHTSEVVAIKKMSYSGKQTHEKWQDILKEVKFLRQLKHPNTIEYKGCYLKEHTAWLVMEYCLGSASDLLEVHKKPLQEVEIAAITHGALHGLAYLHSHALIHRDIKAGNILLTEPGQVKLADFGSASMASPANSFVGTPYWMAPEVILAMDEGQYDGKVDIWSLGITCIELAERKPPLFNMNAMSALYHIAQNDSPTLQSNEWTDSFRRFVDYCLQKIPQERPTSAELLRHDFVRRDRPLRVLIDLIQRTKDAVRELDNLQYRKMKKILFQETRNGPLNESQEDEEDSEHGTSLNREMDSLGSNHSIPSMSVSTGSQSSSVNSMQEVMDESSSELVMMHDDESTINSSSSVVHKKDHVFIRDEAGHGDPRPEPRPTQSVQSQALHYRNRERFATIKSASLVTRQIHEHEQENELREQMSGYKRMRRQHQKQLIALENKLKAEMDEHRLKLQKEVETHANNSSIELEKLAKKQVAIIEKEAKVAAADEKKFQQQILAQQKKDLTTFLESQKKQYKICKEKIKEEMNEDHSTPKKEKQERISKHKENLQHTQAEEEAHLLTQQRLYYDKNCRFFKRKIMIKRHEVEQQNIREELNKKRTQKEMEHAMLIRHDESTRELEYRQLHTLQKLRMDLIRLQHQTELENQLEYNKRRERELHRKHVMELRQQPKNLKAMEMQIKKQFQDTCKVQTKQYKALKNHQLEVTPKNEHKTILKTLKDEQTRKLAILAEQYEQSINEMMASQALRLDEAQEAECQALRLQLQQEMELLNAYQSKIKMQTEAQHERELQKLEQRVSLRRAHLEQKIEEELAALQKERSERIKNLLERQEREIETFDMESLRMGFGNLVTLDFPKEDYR
In words: Selectivity interaction (KinomeScan (DiscoverX)) EUB0000306b TAOK3. To be noted: at 1 µM.

Experiment [18] has as its system Mast/stem cell growth factor receptor Kit (Homo sapiens), P10721 [L576P]. In words: Selectivity interaction (KinomeScan (DiscoverX)) EUB0000306b KIT. To be noted: at 1 µM.
Experiment [19] deals with T3, Gamma-aminobutyric acid receptor subunit alpha-1. In words: Selectivity interaction (GPCR panel (PDSP screen)) EUB0000306b GABRA1.
For experiment [20], the target named is D(3) dopamine receptor (Homo sapiens, UniProt P35462). As to the kind of experiment: Selectivity interaction (GPCR panel (PDSP screen)) EUB0000351a DRD3. Particulars: at 10 µM.
Experiment [21] has as its target T6, Phosphatidylinositol 4,5-bisphosphate 3-kinase catalytic subunit alpha isoform. As to the kind of experiment: Selectivity interaction (KinomeScan (DiscoverX)) EUB0000351a PIK3CA. To be noted: at 1 µM.
For experiment [22], the target named is T7, Serine/threonine-protein kinase TAO3 (Homo sapiens). In words: Selectivity interaction (KinomeScan (DiscoverX)) EUB0000351a TAOK3. To be noted: at 1 µM.
Experiment [23] has as its target 5'-AMP-activated protein kinase catalytic subunit alpha-2 (Homo sapiens) (UniProt P54646). As to the kind of experiment: Selectivity interaction (KinomeScan (DiscoverX)) EUB0000351a PRKAA2. Particulars: at 1 µM.
The target of experiment [24] is cGMP-inhibited 3',5'-cyclic phosphodiesterase 3A (Homo sapiens, UniProt Q14432). As to the kind of experiment: Selectivity interaction (CEREP ligand profiling ) EUB0000351a PDE3A.
Experiment [25] has as its target D(1A) dopamine receptor (Homo sapiens, UniProt P21728). As to the kind of experiment: Selectivity interaction (GPCR panel (PDSP screen)) EUB0000342a DRD1.
Experiment [26] addresses Histamine H4 receptor (Homo sapiens, UniProt Q9H3N8). In words: Selectivity interaction (GPCR panel (PDSP screen)) EUB0000342a HRH4.

The term Ki denotes the dissociation constant of the complex between target and ligand, obtained from inhibition or displacement. Low values mean higher affinity, high ones lower affinity. As usually defined, the IC50 is the concentration that gives 50% inhibition.

T6 sequence (P42336 whole entry, canonical isoform): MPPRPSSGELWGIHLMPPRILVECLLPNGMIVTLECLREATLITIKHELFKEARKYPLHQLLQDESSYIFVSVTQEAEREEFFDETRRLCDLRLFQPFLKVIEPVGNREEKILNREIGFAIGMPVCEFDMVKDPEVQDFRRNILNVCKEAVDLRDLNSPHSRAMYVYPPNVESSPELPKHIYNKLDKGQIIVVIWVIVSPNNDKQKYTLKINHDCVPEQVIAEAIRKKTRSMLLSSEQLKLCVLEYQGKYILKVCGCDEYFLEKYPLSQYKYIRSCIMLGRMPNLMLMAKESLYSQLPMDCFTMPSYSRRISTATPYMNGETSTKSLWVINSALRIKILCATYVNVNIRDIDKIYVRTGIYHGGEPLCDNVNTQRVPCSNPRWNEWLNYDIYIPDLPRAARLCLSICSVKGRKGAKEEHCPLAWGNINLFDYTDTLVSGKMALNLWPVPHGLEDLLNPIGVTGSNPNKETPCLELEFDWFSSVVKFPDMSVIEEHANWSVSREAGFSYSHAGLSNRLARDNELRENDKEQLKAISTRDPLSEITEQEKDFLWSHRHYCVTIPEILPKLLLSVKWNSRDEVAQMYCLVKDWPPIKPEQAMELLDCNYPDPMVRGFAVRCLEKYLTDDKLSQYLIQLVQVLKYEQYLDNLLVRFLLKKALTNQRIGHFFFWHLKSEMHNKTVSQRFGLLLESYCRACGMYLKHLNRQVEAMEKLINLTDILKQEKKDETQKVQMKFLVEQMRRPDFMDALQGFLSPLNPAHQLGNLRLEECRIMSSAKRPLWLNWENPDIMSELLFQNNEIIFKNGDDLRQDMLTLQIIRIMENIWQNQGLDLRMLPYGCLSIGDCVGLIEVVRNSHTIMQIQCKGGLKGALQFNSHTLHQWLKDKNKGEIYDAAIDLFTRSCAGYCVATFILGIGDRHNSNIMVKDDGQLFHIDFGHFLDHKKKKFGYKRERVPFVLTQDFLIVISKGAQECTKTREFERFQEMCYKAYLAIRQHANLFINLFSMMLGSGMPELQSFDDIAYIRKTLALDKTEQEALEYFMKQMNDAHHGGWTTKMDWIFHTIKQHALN
Chain of 5'-AMP-activated protein kinase catalytic subunit alpha-2 (Homo sapiens) (P54646 whole entry, looked up): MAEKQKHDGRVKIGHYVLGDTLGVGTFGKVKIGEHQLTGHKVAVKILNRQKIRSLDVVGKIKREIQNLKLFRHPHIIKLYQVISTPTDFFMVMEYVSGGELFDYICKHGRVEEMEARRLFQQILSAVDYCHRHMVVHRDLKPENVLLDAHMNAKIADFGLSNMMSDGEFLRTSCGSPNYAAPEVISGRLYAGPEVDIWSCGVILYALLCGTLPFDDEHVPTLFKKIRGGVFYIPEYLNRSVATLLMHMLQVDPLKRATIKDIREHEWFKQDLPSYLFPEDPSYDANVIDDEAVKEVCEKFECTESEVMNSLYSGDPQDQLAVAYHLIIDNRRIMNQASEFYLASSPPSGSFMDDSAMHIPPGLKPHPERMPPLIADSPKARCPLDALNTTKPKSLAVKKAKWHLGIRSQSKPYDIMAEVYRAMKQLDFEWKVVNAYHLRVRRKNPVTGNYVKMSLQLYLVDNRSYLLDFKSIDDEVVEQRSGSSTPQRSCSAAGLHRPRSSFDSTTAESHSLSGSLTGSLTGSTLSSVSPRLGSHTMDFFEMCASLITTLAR
Chain of Serine/threonine-protein kinase WNK2 (Homo sapiens) (Q9Y3S1 whole entry): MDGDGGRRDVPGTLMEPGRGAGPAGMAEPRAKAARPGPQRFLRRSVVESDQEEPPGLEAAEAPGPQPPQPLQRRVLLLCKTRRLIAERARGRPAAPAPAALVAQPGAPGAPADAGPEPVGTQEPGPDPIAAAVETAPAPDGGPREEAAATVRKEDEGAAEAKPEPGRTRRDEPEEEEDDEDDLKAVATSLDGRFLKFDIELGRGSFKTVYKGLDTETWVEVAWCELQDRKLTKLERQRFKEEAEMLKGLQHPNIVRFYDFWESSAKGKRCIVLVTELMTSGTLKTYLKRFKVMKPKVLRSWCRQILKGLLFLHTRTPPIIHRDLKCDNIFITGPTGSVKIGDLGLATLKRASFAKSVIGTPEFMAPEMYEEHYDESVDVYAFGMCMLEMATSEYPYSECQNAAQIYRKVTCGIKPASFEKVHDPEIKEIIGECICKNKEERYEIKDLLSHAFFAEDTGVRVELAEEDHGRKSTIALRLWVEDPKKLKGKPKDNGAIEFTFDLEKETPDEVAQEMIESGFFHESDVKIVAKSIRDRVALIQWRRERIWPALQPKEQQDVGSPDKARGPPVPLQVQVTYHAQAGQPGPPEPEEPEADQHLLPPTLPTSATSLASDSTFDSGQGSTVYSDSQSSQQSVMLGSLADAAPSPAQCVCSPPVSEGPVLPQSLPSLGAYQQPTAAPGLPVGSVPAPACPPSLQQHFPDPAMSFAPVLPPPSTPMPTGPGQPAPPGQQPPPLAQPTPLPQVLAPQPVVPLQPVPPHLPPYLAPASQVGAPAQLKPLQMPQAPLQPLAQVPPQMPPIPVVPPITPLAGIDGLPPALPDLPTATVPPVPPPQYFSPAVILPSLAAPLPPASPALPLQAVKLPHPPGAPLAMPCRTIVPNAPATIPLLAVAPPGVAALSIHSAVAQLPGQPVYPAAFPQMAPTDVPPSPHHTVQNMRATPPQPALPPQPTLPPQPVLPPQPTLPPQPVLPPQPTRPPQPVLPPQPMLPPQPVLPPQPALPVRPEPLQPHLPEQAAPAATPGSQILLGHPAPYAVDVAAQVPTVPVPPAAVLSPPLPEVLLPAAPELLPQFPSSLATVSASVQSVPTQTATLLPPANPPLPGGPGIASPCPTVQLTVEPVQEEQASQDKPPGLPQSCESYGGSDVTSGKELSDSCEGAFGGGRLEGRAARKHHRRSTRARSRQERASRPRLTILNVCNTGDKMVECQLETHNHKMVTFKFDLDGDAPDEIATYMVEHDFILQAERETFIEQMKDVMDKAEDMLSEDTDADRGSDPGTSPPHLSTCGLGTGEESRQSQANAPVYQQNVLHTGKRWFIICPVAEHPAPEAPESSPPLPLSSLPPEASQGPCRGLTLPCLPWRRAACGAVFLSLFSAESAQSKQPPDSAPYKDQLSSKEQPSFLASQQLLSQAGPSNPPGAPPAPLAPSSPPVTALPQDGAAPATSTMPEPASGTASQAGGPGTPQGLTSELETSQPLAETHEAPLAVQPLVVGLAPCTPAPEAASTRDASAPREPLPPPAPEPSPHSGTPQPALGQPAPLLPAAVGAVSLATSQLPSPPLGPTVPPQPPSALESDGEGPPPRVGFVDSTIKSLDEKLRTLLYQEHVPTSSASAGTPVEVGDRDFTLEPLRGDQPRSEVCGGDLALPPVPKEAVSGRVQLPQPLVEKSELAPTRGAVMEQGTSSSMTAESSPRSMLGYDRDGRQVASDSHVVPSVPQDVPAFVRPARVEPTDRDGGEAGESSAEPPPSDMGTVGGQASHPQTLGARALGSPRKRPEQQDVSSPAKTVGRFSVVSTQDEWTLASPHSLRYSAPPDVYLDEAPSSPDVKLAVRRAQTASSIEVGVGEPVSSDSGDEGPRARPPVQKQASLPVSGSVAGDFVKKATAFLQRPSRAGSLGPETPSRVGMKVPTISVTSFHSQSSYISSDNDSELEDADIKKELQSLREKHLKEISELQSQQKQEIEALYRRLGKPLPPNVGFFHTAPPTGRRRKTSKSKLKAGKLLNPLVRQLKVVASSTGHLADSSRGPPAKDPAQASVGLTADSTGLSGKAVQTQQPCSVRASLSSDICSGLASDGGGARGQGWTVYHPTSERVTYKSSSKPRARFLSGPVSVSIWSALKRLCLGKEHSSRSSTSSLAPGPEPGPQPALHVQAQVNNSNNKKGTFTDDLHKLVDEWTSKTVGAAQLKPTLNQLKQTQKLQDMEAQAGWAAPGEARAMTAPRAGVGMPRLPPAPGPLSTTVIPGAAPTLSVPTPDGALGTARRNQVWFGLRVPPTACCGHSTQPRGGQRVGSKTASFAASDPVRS
Chain of Mast/stem cell growth factor receptor Kit (Homo sapiens), P10721 [L576P] (P10721 whole entry L576P): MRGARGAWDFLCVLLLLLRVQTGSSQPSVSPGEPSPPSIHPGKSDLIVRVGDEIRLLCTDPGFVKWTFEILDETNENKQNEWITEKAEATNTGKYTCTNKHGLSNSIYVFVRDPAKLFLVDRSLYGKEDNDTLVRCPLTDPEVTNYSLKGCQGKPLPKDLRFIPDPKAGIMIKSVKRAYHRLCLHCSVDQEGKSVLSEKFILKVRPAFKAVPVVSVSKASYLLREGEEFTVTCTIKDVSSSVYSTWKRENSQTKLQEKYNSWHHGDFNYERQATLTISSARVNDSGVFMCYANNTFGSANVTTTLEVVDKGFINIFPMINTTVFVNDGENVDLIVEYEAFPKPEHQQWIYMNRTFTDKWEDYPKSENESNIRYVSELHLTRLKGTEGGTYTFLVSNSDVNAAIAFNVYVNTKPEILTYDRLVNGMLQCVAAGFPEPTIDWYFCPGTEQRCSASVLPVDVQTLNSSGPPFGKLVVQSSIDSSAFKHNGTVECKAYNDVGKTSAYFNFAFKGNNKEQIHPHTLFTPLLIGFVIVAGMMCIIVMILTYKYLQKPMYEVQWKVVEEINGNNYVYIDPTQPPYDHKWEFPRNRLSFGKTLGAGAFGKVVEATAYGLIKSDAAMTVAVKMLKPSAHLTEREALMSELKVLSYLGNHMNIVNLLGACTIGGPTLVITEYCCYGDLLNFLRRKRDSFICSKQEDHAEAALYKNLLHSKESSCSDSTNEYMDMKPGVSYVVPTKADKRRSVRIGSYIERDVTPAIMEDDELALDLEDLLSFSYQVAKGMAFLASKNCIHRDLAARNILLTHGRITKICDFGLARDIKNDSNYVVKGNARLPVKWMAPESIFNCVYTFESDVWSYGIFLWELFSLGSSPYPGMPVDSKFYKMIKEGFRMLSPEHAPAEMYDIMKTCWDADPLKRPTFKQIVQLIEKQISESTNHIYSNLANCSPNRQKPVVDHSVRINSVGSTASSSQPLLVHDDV
Chain of Sigma intracellular receptor 2 (Q5BJF2 whole entry): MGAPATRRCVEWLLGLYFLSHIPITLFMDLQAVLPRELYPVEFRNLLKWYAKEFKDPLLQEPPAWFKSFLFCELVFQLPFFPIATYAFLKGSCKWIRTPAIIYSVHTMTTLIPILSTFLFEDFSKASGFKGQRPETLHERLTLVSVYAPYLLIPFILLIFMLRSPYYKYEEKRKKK

In the case of `O=C(Nc1cccnn1)N1CC(C/C=C/c2cncc(Oc3ccc(C(F)(F)F)cn3)n2)C1`, the Ki in [1] stood at 249 nM; in experiment [3] it was 596 nM; in experiment [4], 1140 nM; in experiment [5], 1340 nM; in [6], 1660 nM; in [8], 472 nM. Also, the Ki in experiment [10] was found to be 437 nM. The results for the % of control in experiment [2], in experiment [7] and in experiment [9] were 0%, 0% and 1.4%, respectively.
With `OCCn1cc(-c2cnc3nnn(Cc4ccc5ncccc5c4)c3n2)cn1` [PF-04217903], the IC50 in [11] and in [15] was greater than 10000 nM in each case. The % of inhibition in experiment [12] is 0.3%; in experiment [13], 0.4%; in [14], 22.5%.
Consider `O=C(Nc1cccnn1)N1CCC(=Cc2cccc(Oc3ccc(C(F)(F)F)cn3)c2)CC1`, for which the % of control is 45% in experiment [16], 42% in experiment [17] and 0% in [18]. In addition, the affinity in [19], expressed as Ki, was 1140 nM.
Turning to `COc1ccc2cc(OCC3(C(=O)O)CN(C(=O)c4ccc(F)cc4)C3)ccc2c1` [PF-04418948], the % of inhibition in [20] is 33%. In addition, the % of control in [21] was 42%; in [22], 35%; in experiment [23], 28%. The same compound gave an IC50 in [24] of 3500 nM.
Consider `O=C(c1ccc(F)cc1)N1CC(COc2ccc(Br)cc2)(C(=O)O)C1` [PF-04475866], for which the Ki in [25] and in experiment [26] was greater than 10000 nM throughout.
